# Measurements taken from US10138230B2, “Autotaxin inhibitors” (CANCER RESEARCH TECHNOLOGY LIMITED, priority 2015, dated 2018).
# Where a name gives a salt, the structure may show the parent alone.
# Target: human recombinant ATX (Homo sapiens (Human), UniProt Q13822)
# Experiment: Autotaxin (ATX) activity Quanta Red assay
# Assay type: biochemical
# Conditions: 15 μM Rac-1-Palmitoyl-glycero-3-phosphocholine, 2 hours room temperature, determined in duplicate
# Description: The ATX enzyme assay (Quanta Red assay) described in accompanying Example section may be used to measure the pharmacological effects of the compounds of the present invention.
# Autotaxin (ATX) Activity Quanta Red Assay
# Measuring ATX activity using an enzyme coupled Quanta Red assay (Thermo Scientific—Pierce Protein Research Products, Product #15159) was determined as follows. 8 μL human recombinant ATX (final concentration 0.8 μg/mL) in 1× Assay buffer containing 50 mM Tris-HCl (pH 8.0), 5 mM CaCl2 was added to an opaque black flat-bottom 384-well plate (Corning, #3575) containing 2 μL test compound in 40% DMSO (4% final DMSO concentration). 10 μL of Quanta Red, Horseradish peroxidase (HRP), Choline Oxidase (CO), Rac-1-Palmitoyl-glycero-3-phosphocholine solution (final concentration 1:250 for Quanta Red, 0.5units/ml HRP, 0.5units/ml CO, 15 μM Rac-1-Palmitoyl-glycero-3-phosphocholine) in 1× assay buffer (as described previously) was added to each well to start the reaction and the plate was incubated at room temperature for 2 hours. The reaction was stopped after 2 hours with a 20 μL addition of Quanta Red Stop solution (1:20 dilution in distilled water). The above-described mixture with DMSO alone was used as a positive control whereas that with DMSO alone without ATX was taken as a negative control.
# For each test compound, ten concentrations were measured covering a range of 6.1 nM to 120 μM to determine IC50 values. The top concentration was decreased to 1.2 μM when a test compound's IC50 value was evaluated in low nanomolar range. Fluorescence was determined in a BMG Labtech Pherastar plus plate reader ([…]). Data were analysed using Excel fit software. IC50 values were determined in duplicate.
row,IC50 [nM],SMILES
1,8,"CC1CN(Cc2ccc(N3CC(C(=O)Nc4nnc(CCc5ccc(Cl)cc5)s4)CC3=O)cc2)C[C@H](C)O1 (stereo in doubt) [Compound F125, N-[5-[2-(4-chlorophenyl)ethyl]-1,3,4-thiadiazol-2-yl]-1-[4-[[(2S,6S)-2,6-dimethylmorpholin-4-yl]methyl]phenyl]-5-oxo-pyrrolidine-3-carboxamide]"
2,1,"O=C(Nc1cc(CCc2ccc(Cl)cc2)on1)C1CC(=O)N(c2ccc(CN3CCCCC3)cc2)C1 (stereo in doubt) [Compound F146, (3S)-N-[5-[2-(4-chlorophenyyl)ethyl]isoxazol-3-yl]-5-oxo-1-[4-(1-piperidylmethyl)phenyl] pyrrolidine-3-carboxamide]"
3,3,"O=C(Nc1nnc(CCc2ccc(F)cc2)s1)[C@H]1CC(=O)N(c2ccc(CN3CCOCC3)cc2)C1 (stereo in doubt) [Compound F215, 1-(4-Morpholin-4-ylmethyl-phenyl)-5-oxo-pyrrolidine-3-carboxylic acid {5-[2-(4-fluoro-phenyl)-ethyl]-[1,3,4]thiadiazol-2-yl}-amide; hydrochloride]"
4,1,"CN(Cc1ccc(N2C[C@@H](C(=O)Nc3nnc(CCc4ccc(Cl)cc4)s3)CC2=O)cc1)C1CCOC1 (stereo partly drawn) [Compound F87, (3S)-N-[5-[2-(4-chlorophenyl)ethyl]-1,3,4-thiadiazol-2-yl]-1-[4-[[methyl(tetrahydrofuran-3-yl)amino]methyl]phenyl]-5-oxo-pyrrolidine-3-carboxamide]"
5,1,"CN(Cc1ccc(N2C[C@@H](C(=O)Nc3nnc(CCc4ccc(Cl)cc4)s3)CC2=O)cc1)C1COC1 [Compound F88, (3S)-N-[5-[2-(4-chlorophenyl)ethyl]-1,3,4-thiadiazol-2-yl]-1-[4-[[methyl(oxetan-3-yl)amino]methyl]phenyl]-5-oxo-pyrrolidine-3-carboxamide]"
6,1,"O=C(Nc1nnc(CCc2ccc(Cl)cc2)s1)[C@H]1CC(=O)N(c2ccc(CN3CCOCC3)cc2)C1 [Compound F89, (3S)-N-[5-[2-(4-chlorophenyl)ethyl]-1,3,4-thiadiazol-2-yl]-1-[4-(morpholino-methyl)phenyl]-5-oxo-pyrrolidine-3-carboxamide]"
7,1,"CN(Cc1ccc(N2C[C@@H](C(=O)Nc3nnc(CCc4ccc(Cl)cc4)s3)CC2=O)cc1)C1CCOCC1 [Compound F90, (3S)-N-[5-[2-(4-chlorophenyl)ethyl]-1,3,4-thiadiazol-2-yl]-1-[4-[[methyl(tetrahydropyran-4-yl)amino]methyl]phenyl]-5-oxo-pyrrolidine-3-carboxamide]"
8,1,"O=C(Nc1nnc(CCc2ccc(Cl)cc2)s1)[C@H]1CC(=O)N(c2ccc(CN3CCCCCC3)cc2)C1 [Compound F91, (3S)-1-[4-(azepan-1-ylmethyl)phenyl]-N-[5-[2-(4-chlorophenyl)ethyl]-1,3,4-thiadiazol-2-yl]-5-oxo-pyrrolidine-3-carboxamide]"
9,1,"CC1CCN(Cc2ccc(N3C[C@@H](C(=O)Nc4nnc(CCc5ccc(Cl)cc5)s4)CC3=O)cc2)CC1 [Compound F92, (S)-1-[4-(4-methyl-piperidin-1-ylmethyl)-phenyl]-5-oxo-pyrrolidine-3-carboxylic acid {5-[2-(4-chloro-phenyl)-ethyl]-[1,3,4]thiadiazol-2-yl}-amide]"
10,1,"O=C(Nc1nnc(CCc2ccc(Cl)cc2)s1)[C@H]1CC(=O)N(c2ccc(CN3CCCCC3)cc2)C1 [Compound F93, (3S)-N-[5-[2-(4-chlorophenyl)ethyl]-1,3,4-thiadiazol-2-yl]-5-oxo-1-[4-(1-piperidylmethyl)phenyl] pyrrolidine-3-carboxamide]"
11,1,"COCCN(C)Cc1ccc(N2C[C@@H](C(=O)Nc3nnc(CCc4ccc(Cl)cc4)s3)CC2=O)cc1 [Compound F94, (3S)-N-[5-[2-(4-chlorophenyl)ethyl]-1,3,4-thiadiazol-2-yl]-1-[4-[[2-methoxyethyl(methyl)amino]methyl]phenyl]-5-oxo-pyrrolidine-3-carboxamide]"
12,2,"CC1CCN(Cc2ccc(N3CC(C(=O)Nc4nnc(CCc5ccc(Cl)cc5)s4)CC3=O)cc2)CC1 (stereo not drawn) [Compound F95, 1-[4-(4-methyl-piperidin-1-ylmethyl)-phenyl]-5-oxo-pyrrolidine-3-carboxylic acid {5-[2-(4-chloro-phenyl)-ethyl]-[1,3,4]thiadiazol-2-yl}-amide]"
13,2,"O=C(Nc1nnc(CCC2CCCCC2)s1)C1CC(=O)N(c2ccc(CN3CCCOCC3)cc2)C1 (stereo not drawn) [Compound F96, N-[5-(2-cyclohexylethyl)-1,3,4-thiadiazol-2-yl]-1-[4-(1,4-oxazepan-4-ylmethyl)phenyl]-5-oxo-pyrrolidine-3-carboxamide]"
14,2,"O=C(Nc1nnc(CCc2ccc(C(F)(F)F)cc2)s1)[C@H]1CC(=O)N(c2ccc(CN3CCOCC3)cc2)C1 [Compound F97, (3S)-1-[4-(morpholinomethyl)phenyl]-5-oxo-N-[5-[2-[4-(trifluoromethyl)phenyl]ethyl]-1,3,4-thiadiazol-2-yl]pyrrolidine-3-carboxamide]"
15,2,"CCN(CC)Cc1ccc(N2CC(C(=O)Nc3nnc(CCc4ccc(Cl)cc4)s3)CC2=O)cc1 (stereo not drawn) [Compound F98, N-[5-[2-(4-chlorophenyl)ethyl]-1,3,4-thiadiazol-2-yl]-1-[4-(diethylaminomethyl)phenyl]-5-oxo-pyrrolidine-3-carboxamide]"
16,2,"O=C(Nc1nnc(CCc2ccc(Cl)cc2)s1)C1CC(=O)N(c2ccc(CN3CCCCC3)cc2)C1 (stereo not drawn) [Compound F99, N-[5-[2-(4-chlorophenyl)ethyl]-1,3,4-thiadiazol-2-yl]-5-oxo-1-[4-(1-piperidylmethyl)phenyl] pyrrolidine-3-carboxamide]"
17,2,"COCCN(C)Cc1ccc(N2CC(C(=O)Nc3nnc(CCc4ccc(Cl)cc4)s3)CC2=O)cc1 (stereo not drawn) [Compound F100, N-[5-[2-(4-chlorophenyl)ethyl]-1,3,4-thiadiazol-2-yl]-1-[4-[[2-methoxyethyl(methyl)amino]methyl]phenyl]-5-oxo-pyrrolidine-3-carboxamide]"
18,3,"O=C(Nc1nnc(CCc2ccc(Cl)cc2)s1)C1CC(=O)N(c2ccc(CN3CCCOCC3)cc2)C1 (stereo not drawn) [Compound F101, N-[5-[2-(4-chlorophenyl)ethyl]-1,3,4-thiadiazol-2-yl]-1-[4-(1,4-oxazepan-4-ylmethyl)phenyl]-5-oxo-pyrrolidine-3-carboxamide]"
19,3,"O=C(Nc1nnc(CCc2ccc(Cl)cc2)s1)C1CC(=O)N(c2ccc(CN3CCC(O)CC3)cc2)C1 (stereo not drawn) [Compound F102, N-[5-[2-(4-chlorophenyl)ethyl]-1,3,4-thiadiazol-2-yl]-1-[4-[(4-hydroxy-1-piperidyl)methyl]phenyl]-5-oxo-pyrrolidine-3-carboxamide]"
20,3,"O=C(Nc1nnc(CCc2ccc(Cl)cc2)s1)[C@H]1CC(=O)N(c2ccc(CN3CC4CC4C3)cc2)C1 (stereo partly drawn) [Compound F103, (3S)-1-[4-(3-azabicyclo[3.1.0]hexan-3-ylmethyl)phenyl]-N-[5-[2-(4-chlorophenyl)ethyl]-1,3,4-thiadiazol-2-yl]-5-oxo-pyrrolidine-3-carboxamide]"
21,3,"O=C(Nc1nnc(CCc2ccc(Cl)cc2)s1)[C@H]1CC(=O)N(c2ccc(CN3CCCOCC3)cc2)C1 [Compound F104, (3S)-N-[5-[2-(4-chlorophenyl)ethyl]-1,3,4-thiadiazol-2-yl]-1-[4-(1,4-oxazepan-4-ylmethyl)phenyl]-5-oxo-pyrrolidine-3-carboxamide]"
